Assay results taken from patent US9695155B2, “Herbicidal substituted pyrimidinyloxy benzene compounds” (E. I. DU PONT DE NEMOURS AND COMPANY, priority 2013, dated 2017).

Assays:
[1] = system: giant foxtail; assay: Test A postemergence; format: in vivo, Setaria faberii; conditions: 0 to 100 scale where 0 is no effect and 100 is complete control
Summary of the method: (§1)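 Scoring: eye-based comparison with untreated controls, 0 for no effect through 100 for complete control, at about day 10. Treatments: directed soil spray preemergence; foliar spray postemergence on 2–10 cm plants at the one- to two-leaf stage. Medium: loam soil with sand.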

[2] = system: corn; assay: Test A postemergence; format: in vivo, Zea mays; conditions: 0 to 100 scale where 0 is no effect and 100 is complete control
Summary of the method: as §1

[3] = system: corn; assay: Test C preemergence; format: in vivo, Zea mays
Summary of the method: (§2)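 Whole-plant greenhouse test with surfactant-containing solvent formulation, applied preemergence to sown loam–sand pots or postemergence to 2–18 cm plants. Scored by eye 13 to 15 days on, 0–100 scale.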

[4] = system: large (Lg) crabgrass; assay: Test C preemergence; format: in vivo, Digitaria sanguinalis
Summary of the method: as §2

[5] = system: lambsquarters; assay: Test C preemergence; format: in vivo, Chenopodium album
Summary of the method: as §2

[6] = system: pigweed; assay: Test C preemergence; format: in vivo, Amaranthus retroflexus
Summary of the method: as §2

[7] = system: blackgrass; assay: Test C postemergence; format: in vivo, Alopecurus myosuroides
Summary of the method: as §2

[8] = system: wheat, winter; assay: Test C postemergence; format: in vivo, Triticum aestivum; conditions: for Wheat plant response rating: 31 g ai/ha
Summary of the method: as §2

[9] = system: corn; assay: Test C postemergence; format: in vivo, Zea mays
Summary of the method: as §2

[10] = system: giant foxtail; assay: Test C postemergence; format: in vivo, Setaria faberii
Summary of the method: as §2

[11] = system: yellow nutsedge; assay: Test C postemergence; format: in vivo, Cyperus esculentus; conditions: for Nutsedge, Yellow plant response rating: 31 g ai/ha
Summary of the method: as §2

[12] = system: barnyardgrass; assay: Test C postemergence; format: in vivo, Echinochloa crus-galli
Summary of the method: as §2

[13] = system: kochia; assay: Test C postemergence; format: in vivo, Kochia scoparia
Summary of the method: as §2

[14] = postemergence, visual rating, scale 0 to 100 (0 no effect, 100 complete control), 13 to 15 days
[15] = 125 g ai/ha, preemergence, scale 0 (no effect) to 100 (complete control)
[16] = 250 g ai/ha, preemergence, scale 0 (no effect) to 100 (complete control)
[17] = Preemergence, 62 g ai/ha, scale 0 to 100, 0 no effect, 100 complete control
[18] = 31 g ai/ha, postemergence, visual rating, scale 0 to 100 (0 no effect, 100 complete control), 13 to 15 days
[19] = 125 g ai/ha, postemergence, visual rating, scale 0 to 100 (0 no effect, 100 complete control)
[20] = Postemergence, 62 g ai/ha, scale 0 to 100 (0 no effect, 100 complete control), 13 to 15 days

FC(F)c1cccc(Oc2ncc(Cl)cn2)c1-n1cc(Br)cn1 [Compound 194, 2-[2-(4-bromo-1H-pyrazol-1-yl)-3-(difluoromethyl)phenoxy]-5-chloropyrimidine]
55%: pest or weed control at 250 g/ha ([12]; Echinochloa crus-galli, post-emergence, 250 g ai/ha, postemergence, read-out: Plant response rating (0 to 100), Barnyardgrass)
10%: pest or weed control at 31 g/ha ([10]; Setaria faberi, post-emergence, 31 g ai/ha, postemergence, visual rating, scale 0 to 100 (0 no effect, 100 complete control), 13 to 15 days, read-out: Foxtail, Giant plant response rating) | pest or weed control at 62 g/ha ([10]; Setaria faberi, post-emergence, Postemergence, 62 g ai/ha, scale 0 to 100 (0 no effect, 100 complete control), 13 to 15 days, read-out: Plant response rating, Foxtail, Giant)
20%: pest or weed control at 62 g/ha ([7]; Alopecurus myosuroides, post-emergence, Postemergence, 62 g ai/ha, scale 0 to 100 (0 no effect, 100 complete control), 13 to 15 days, read-out: Plant response rating, Blackgrass)
5: Nutsedge, Yellow plant response rating [11, 14]
5%: plant injury at 250 g/ha ([8]; Triticum aestivum, post-emergence, 250 g ai/ha, postemergence, read-out: Plant response rating (0 to 100), Wheat) | plant injury at 31 g/ha ([9]; Zea mays, post-emergence, 31 g ai/ha, postemergence, visual rating, scale 0 to 100 (0 no effect, 100 complete control), 13 to 15 days, read-out: Corn plant response rating) | pest or weed control at 125 g/ha ([11]; Cyperus, post-emergence, 125 g ai/ha, postemergence, visual rating, scale 0 to 100 (0 no effect, 100 complete control), read-out: Plant response rating, Nutsedge, Yellow) | pest or weed control at 250 g/ha ([11]; Cyperus, post-emergence, 250 g ai/ha, postemergence, read-out: Plant response rating (0 to 100), Nutsedge, Yellow) | pest or weed control at 62 g/ha ([11]; Cyperus, post-emergence, Postemergence, 62 g ai/ha, scale 0 to 100 (0 no effect, 100 complete control), 13 to 15 days, read-out: Plant response rating, Nutsedge, Yellow) | pest or weed control at 31 g/ha ([12]; Echinochloa crus-galli, post-emergence, 31 g ai/ha, postemergence, visual rating, scale 0 to 100 (0 no effect, 100 complete control), 13 to 15 days, read-out: Barnyardgrass plant response rating) | pest or weed control at 62 g/ha ([12]; Echinochloa crus-galli, post-emergence, Postemergence, 62 g ai/ha, scale 0 to 100 (0 no effect, 100 complete control), read-out: Plant response rating, Barnyardgrass)
98%: pest or weed control at 62 g/ha ([4]; Digitaria sanguinalis, pre-emergence, Preemergence, 62 g ai/ha, scale 0 to 100, 0 no effect, 100 complete control, read-out: Plant response rating, Crabgrass, Large)
25%: plant injury at 250 g/ha ([3]; Zea mays, pre-emergence, 250 g ai/ha, preemergence, scale 0 (no effect) to 100 (complete control), read-out: Corn plant response rating) | Corn plant response rating (crop injury, 0 = no effect, 100 = complete kill) at 125 g/ha ([9]; Zea mays, post-emergence, 125 g ai/ha, postemergence, visual rating, scale 0 to 100 (0 no effect, 100 complete control))
30%: plant injury at 125 g/ha ([2]; Zea mays, post-emergence, 240 h, 125 g ai/ha, read-out: Corn plant response rating) | pest or weed control at 125 g/ha ([7]; Alopecurus myosuroides, post-emergence, 125 g ai/ha, postemergence, visual rating, scale 0 to 100 (0 no effect, 100 complete control), read-out: Plant response rating, Blackgrass) | plant injury at 250 g/ha ([9]; Zea mays, post-emergence, 250 g ai/ha, postemergence, read-out: Plant response rating (0 to 100), Corn)
100%: pest or weed control at 500 g/ha ([1]; Setaria faberi, post-emergence, 240 h, 500 g ai/ha, read-out: Plant response rating, Foxtail, Giant) | pest or weed control at 125 g/ha ([4]; Digitaria sanguinalis, pre-emergence, 125 g ai/ha, preemergence, scale 0 (no effect) to 100 (complete control), read-out: Crabgrass, Large plant response rating) | pest or weed control at 250 g/ha ([4]; Digitaria sanguinalis, pre-emergence, 250 g ai/ha, preemergence, scale 0 (no effect) to 100 (complete control), read-out: Crabgrass, Large plant response rating) | pest or weed control at 125 g/ha ([5]; Chenopodium album, pre-emergence, 125 g ai/ha, preemergence, scale 0 (no effect) to 100 (complete control), read-out: Lambsquarters plant response rating) | pest or weed control at 250 g/ha ([5]; Chenopodium album, pre-emergence, 250 g ai/ha, preemergence, scale 0 (no effect) to 100 (complete control), read-out: Lambsquarters plant response rating) | pest or weed control at 62 g/ha ([5]; Chenopodium album, pre-emergence, Preemergence, 62 g ai/ha, scale 0 to 100, 0 no effect, 100 complete control, read-out: Plant response rating, Lambsquarters) | pest or weed control at 125 g/ha ([6]; Amaranthus retroflexus, pre-emergence, 125 g ai/ha, preemergence, scale 0 (no effect) to 100 (complete control), read-out: Pigweed plant response rating) | pest or weed control at 250 g/ha ([6]; Amaranthus retroflexus, pre-emergence, 250 g ai/ha, preemergence, scale 0 (no effect) to 100 (complete control), read-out: Pigweed plant response rating) | pest or weed control at 62 g/ha ([6]; Amaranthus retroflexus, pre-emergence, Preemergence, 62 g ai/ha, scale 0 to 100, 0 no effect, 100 complete control, read-out: Plant response rating, Pigweed)
15%: plant injury at 125 g/ha ([3]; Zea mays, pre-emergence, 125 g ai/ha, preemergence, scale 0 (no effect) to 100 (complete control), read-out: Corn plant response rating) | pest or weed control at 31 g/ha ([7]; Alopecurus myosuroides, post-emergence, 31 g ai/ha, postemergence, visual rating, scale 0 to 100 (0 no effect, 100 complete control), 13 to 15 days, read-out: Blackgrass plant response rating) | pest or weed control at 125 g/ha ([10]; Setaria faberi, post-emergence, 125 g ai/ha, postemergence, visual rating, scale 0 to 100 (0 no effect, 100 complete control), read-out: Plant response rating, Foxtail, Giant) | pest or weed control at 250 g/ha ([10]; Setaria faberi, post-emergence, 250 g ai/ha, postemergence, read-out: Plant response rating (0 to 100), Foxtail, Giant) | pest or weed control at 125 g/ha ([12]; Echinochloa crus-galli, post-emergence, 125 g ai/ha, postemergence, visual rating, scale 0 to 100 (0 no effect, 100 complete control), read-out: Plant response rating, Barnyardgrass)
60%: Corn plant response rating (crop injury, 0 = no effect, 100 = complete kill) at 500 g/ha ([2]; Zea mays, post-emergence, 240 h, 500 g ai/ha)
0%: Corn plant response rating (crop injury, 0 = no effect, 100 = complete kill) at 62 g/ha ([3]; Zea mays, pre-emergence, Preemergence, 62 g ai/ha, scale 0 to 100, 0 no effect, 100 complete control) | plant injury at 125 g/ha ([8]; Triticum aestivum, post-emergence, 125 g ai/ha, postemergence, visual rating, scale 0 to 100 (0 no effect, 100 complete control), read-out: Plant response rating, Wheat) | plant injury at 62 g/ha ([8]; Triticum aestivum, post-emergence, Postemergence, 62 g ai/ha, scale 0 to 100 (0 no effect, 100 complete control), 13 to 15 days, read-out: Plant response rating, Wheat)
35%: pest or weed control at 250 g/ha ([7]; Alopecurus myosuroides, post-emergence, 250 g ai/ha, postemergence, read-out: Plant response rating (0 to 100), Blackgrass)
0: Wheat plant response rating [8, 14]
90%: pest or weed control at 125 g/ha ([1]; Setaria faberi, post-emergence, 240 h, 125 g ai/ha, read-out: Foxtail, Giant plant response rating) | pest or weed control at 31 g/ha ([13]; Bassia scoparia, post-emergence, 31 g ai/ha, postemergence, visual rating, scale 0 to 100 (0 no effect, 100 complete control), 13 to 15 days, read-out: Kochia plant response rating) | pest or weed control at 125 g/ha ([13]; Bassia scoparia, post-emergence, 125 g ai/ha, postemergence, visual rating, scale 0 to 100 (0 no effect, 100 complete control), read-out: Plant response rating, Kochia) | pest or weed control at 62 g/ha ([13]; Bassia scoparia, post-emergence, Postemergence, 62 g ai/ha, scale 0 to 100 (0 no effect, 100 complete control), 13 to 15 days, read-out: Plant response rating, Kochia)
95%: pest or weed control at 250 g/ha ([13]; Bassia scoparia, post-emergence, 250 g ai/ha, postemergence, read-out: Plant response rating (0 to 100), Kochia)

N#Cc1cccc(Oc2ncc(Cl)cn2)c1-n1cc(I)cn1 [Compound 204]
0: Plant response rating, Corn [3, 17] | Nutsedge, Yellow plant response rating [11, 14] | Plant response rating, Nutsedge, Yellow [11, 19]
35: Corn plant response rating [3, 16] | Plant response rating (0 to 100), Barnyardgrass ([12]; 250 g ai/ha, postemergence)
95: Lambsquarters plant response rating [5, 15]
10: Plant response rating, Blackgrass [7, 19] | Plant response rating, Wheat [8, 19] | Plant response rating (0 to 100), Wheat ([8]; 250 g ai/ha, postemergence) | Corn plant response rating [9, 18] | Plant response rating, Foxtail, Giant [10, 19] | Plant response rating, Nutsedge, Yellow [11, 20] | Plant response rating, Barnyardgrass ([12]; Postemergence, 62 g ai/ha, scale 0 to 100 (0 no effect, 100 complete control))
90: Plant response rating (0 to 100), Foxtail, Giant ([10]; 250 g ai/ha, postemergence) | Kochia plant response rating [13, 18]
20: Plant response rating, Corn [9, 19] | Plant response rating (0 to 100), Corn ([9]; 250 g ai/ha, postemergence) | Plant response rating, Corn [9, 20]
80: Foxtail, Giant plant response rating ([1]; 125 g ai/ha)
25: Plant response rating (0 to 100), Blackgrass ([7]; 250 g ai/ha, postemergence)
98: Lambsquarters plant response rating [5, 16] | Plant response rating, Lambsquarters [5, 17] | Pigweed plant response rating [6, 15] | Pigweed plant response rating [6, 16]
5: Corn plant response rating [3, 15] | Blackgrass plant response rating [7, 18] | Plant response rating, Blackgrass [7, 20] | Wheat plant response rating [8, 14] | Plant response rating, Wheat [8, 20] | Foxtail, Giant plant response rating [10, 18] | Plant response rating, Foxtail, Giant [10, 20] | Plant response rating (0 to 100), Nutsedge, Yellow ([11]; 250 g ai/ha, postemergence) | Barnyardgrass plant response rating [12, 18] | Plant response rating, Barnyardgrass [12, 19]
50: Corn plant response rating ([2]; 125 g ai/ha)
100: Plant response rating, Foxtail, Giant ([1]; 500 g ai/ha) | Crabgrass, Large plant response rating [4, 15] | Crabgrass, Large plant response rating [4, 16] | Plant response rating, Crabgrass, Large [4, 17] | Plant response rating, Pigweed [6, 17] | Plant response rating, Kochia [13, 19] | Plant response rating (0 to 100), Kochia ([13]; 250 g ai/ha, postemergence) | Plant response rating, Kochia [13, 20]
60: Plant response rating, Corn ([2]; 500 g ai/ha)
